In patent US20220380375A1, “SUBSTITUTED AROMATIC FUSED RING DERIVATIVE AND COMPOSITION COMPRISING SAME, AND USE THEREOF” (Shenzhen TargetRx, Inc., priority 2019, published 2022):
pIC50: −log10 of the molar value. Marks after values point to notes of the source that are not given here.

Experiments:
[1] = test system: Ba/F3 KIF5B-RET^G810R cell line tumor model; assay: Anti-tumor effect assay in Ba/F3 KIF5B-RET^G810R cell line tumor model (allograft); type: in vivo, female NPSG mice; settings: for Tumor volume (x ± S), Day 0 of administration / Tumor volume (x ± S), Day 13 of administration / TGI (%), Day 13 of administration: Ba/F3 KIF5B-RET^G810R model; for Tumor volume (x ± S), Day 0 of administration: 25 mg/kg p.o. QD × 13, day 0 (baseline); for Tumor volume (x ± S), Day 13 of administration / TGI (%), Day 13 of administration: 25 mg/kg p.o. QD × 13, day 13; for TGI (%), Day 13 of administration: TGI more than 100% = decrease in tumor volume; for relative tumor inhibition rate TGI (%): day 13 of administration, AD80 group 25 mg/kg
Source text: (§1) The efficacy of compounds of the present disclosure in female NPSG mouse allograft models of two B-cell lymphoma cell lines Ba/F3 KIF5B-RET and Ba/F3 KIF5B-RET^G810R was verified.
(§2) Assay animals: Female NPSG mice, 6-8 weeks old (age of mice at the time of tumor cell inoculation), weighing 18-20 g, 60 mice, purchased from Shanghai Jihui Laboratory Animal Care Co., Ltd.
(§3) Assay methods: 1) Ba/F3 KIF5B-RET and Ba/F3 KIF5B-RET^G810R cells were respectively resuscitated and Cultured in vitro, and 3×10^7 cells of each type were obtained. 2) 60 female NPSG mice aged 6-8 weeks were adaptively bred for 1 week and then weighed. 4) After inoculation, tumor volume and body weight were measured once a week. When average tumor volume reached about […], mice inoculated with each type of Ba/F3 cells were randomly divided into 7 groups according to tumor volume and body weight, with 3 mice in each group. The administration was started immediately after grouping. The date of start of administration was regarded as day 0. Informations on administration and grouping were shown in Tables 5 and 6.5) After the start of the administration, the body weight and tumor volume of mice were measured twice a week. 6) After the end of the administration, the assay was over.
(§4) Assay observation and data collection: After tumor inoculation, morbidity and death of animals were observed every working day. Daily observation included tumor growth and effects of drugs on laboratory animals, such as changes in activity, changes in feeding and drinking, weight loss, changes in appearance of hair and eye, death and other clinical symptoms. Formula for calculating tumor volume is: tumor volume (mm^3)=½×(a×b^2) (wherein a represents the long diameter and b represents the short diameter)
(§5) Relative tumor inhibition rate TGI (%): TGI %=(1−T/C)×100%. T/C % is relative tumor proliferation rate, that is, a percentage value of relative tumor volume between treatment group and control group at a certain point in time. T and C are relative tumor volume (RTV, that is, the […] tumor volume at this time point and tumor volume at day 0) of treatment group and control group at a certain point in time, respectively.
(§6) Statistical analysis: For pairwise comparison, a T-Test analysis method was used, and for comparison of three or more groups, a One-Way ANOVA method was used. For comparison of potential synergistic effects, a Two-way ANOVA was used. SPSS 24.0 was used for all data. A p value less than 0.05 was considered a significant difference.

RET V804M = target: T1, RET V804M (Homo sapiens, UniProt P07949, V804M); assay: Inhibition of kinase, RET V804M (HTRF KinEASE-TK); type: biochemical
T1 construct: purchased Signalchem R02—12GG
Experimental: (§7) Ret wt (Carna, Cat. No. 08-159-10 ug), RET (V804M), Active (Signalchem. Cat. No. R02—12GG), HTRF KinEASE-TK kit (Cisbio, Cat. No.62TK0PEC), CEP-32496 (MCE, Cat. No. HY-15200), ATP (Sigma. Cat. No. A7699), DMSO (Sigma, Cat. No. D8418-1L), DTT (Sigma, Cat. No. D0632), MgCl2(Sigma, Cat. No. M1028), 384-well plate (Labcyte, Cat. No. P-05525-BC).
(§8) Formulation of compound: The test compounds were dissolved in DMSO to obtain 10 mM stock solutions, which were then serially diluted 3-fold in DMSO to obtain 10 concentrations. At the time of addition, the compound was further diluted 10-fold with buffer.
(§9) In 5×kinase buffer A, Ret wt or RET V804M kinase was mixed with different concentrations of compounds prepared by pre-dilution for 10 minutes. Each concentration was tested in duplicate. The corresponding substrate and ATP were added, and reaction was performed at room temperature for 20 minutes (negative and positive controls were provided: the negative control was a blank control, and the positive control was CEP-32496 (Agerafenib)). After completion of the reaction, detection reagents (reagents in the HTRF KinEASE-TK kit) were added. After incubating for 30 minutes at room temperature, enzyme activity in the presence of various concentrations of the compounds of the present disclosure was determined by Envision microplate reader, and inhibitory activity of different concentrations of the compounds on enzyme activity was calculated. The inhibitory activity of different concentrations of the compounds on enzyme activity was fitted by Graphpad 5.0 software, and the IC50 value was calculated.

[2] = test system: Ba/F3 KIF5B-RET cell line tumor model; assay: Anti-tumor effect assay in Ba/F3 KIF5B-RET cell line tumor model (allograft); type: in vivo, female NPSG mice; settings: for Tumor volume (x ± S), Day 0 of administration: 10 mg/kg p.o. QD × 14, day 0 (baseline); for TGI (%), Day 14 of administration / Tumor volume (x ± S), Day 14 of administration: 10 mg/kg p.o. QD × 14, day 14
Source text: as §1, §2, §3, §4, §5, §6

[3] = Safety assay (body weight, tolerability) in Ba/F3 KIF5B-RET^G810R cell line tumor model; type: in vivo; settings: for Number of animals at the beginning/end of assay: 25 mg/kg p.o. QD × 13; for Average weight g (x ± S), Day 0 of administration: 25 mg/kg p.o. QD × 13, day 0 (baseline); for Average weight g (x ± S), Day 13 of administration / Weight change rate (%), Day 13 of administration: 25 mg/kg p.o. QD × 13, day 13; for tolerability (weight loss, drug withdrawal, drug toxicity): during the treatment
Experimental: as §3, §4

Ret wt = target: T2, Ret wt (Homo sapiens, UniProt P07949); assay: Inhibition of kinase, Ret wt (HTRF KinEASE-TK); type: biochemical
T2 construct: purchased Carna 08-159-10 ug
Experimental: as §7, §8, §9

[4] = Safety assay (body weight, tolerability) in Ba/F3 KIF5B-RET cell line tumor model; type: in vivo; settings: for Number of animals at the beginning/end of assay: 10 mg/kg p.o. QD × 14; for Average weight g (x ± S), Day 0 of administration: 10 mg/kg p.o. QD × 14, day 0 (baseline); for Average weight g (x ± S), Day 14 of administration / Weight change rate (%), Day 14 of administration: 10 mg/kg p.o. QD × 14, day 14; for tolerability (weight loss, drug withdrawal, drug toxicity): during the treatment
Experimental: as §3, §4

T2 sequence (P07949 29-1114): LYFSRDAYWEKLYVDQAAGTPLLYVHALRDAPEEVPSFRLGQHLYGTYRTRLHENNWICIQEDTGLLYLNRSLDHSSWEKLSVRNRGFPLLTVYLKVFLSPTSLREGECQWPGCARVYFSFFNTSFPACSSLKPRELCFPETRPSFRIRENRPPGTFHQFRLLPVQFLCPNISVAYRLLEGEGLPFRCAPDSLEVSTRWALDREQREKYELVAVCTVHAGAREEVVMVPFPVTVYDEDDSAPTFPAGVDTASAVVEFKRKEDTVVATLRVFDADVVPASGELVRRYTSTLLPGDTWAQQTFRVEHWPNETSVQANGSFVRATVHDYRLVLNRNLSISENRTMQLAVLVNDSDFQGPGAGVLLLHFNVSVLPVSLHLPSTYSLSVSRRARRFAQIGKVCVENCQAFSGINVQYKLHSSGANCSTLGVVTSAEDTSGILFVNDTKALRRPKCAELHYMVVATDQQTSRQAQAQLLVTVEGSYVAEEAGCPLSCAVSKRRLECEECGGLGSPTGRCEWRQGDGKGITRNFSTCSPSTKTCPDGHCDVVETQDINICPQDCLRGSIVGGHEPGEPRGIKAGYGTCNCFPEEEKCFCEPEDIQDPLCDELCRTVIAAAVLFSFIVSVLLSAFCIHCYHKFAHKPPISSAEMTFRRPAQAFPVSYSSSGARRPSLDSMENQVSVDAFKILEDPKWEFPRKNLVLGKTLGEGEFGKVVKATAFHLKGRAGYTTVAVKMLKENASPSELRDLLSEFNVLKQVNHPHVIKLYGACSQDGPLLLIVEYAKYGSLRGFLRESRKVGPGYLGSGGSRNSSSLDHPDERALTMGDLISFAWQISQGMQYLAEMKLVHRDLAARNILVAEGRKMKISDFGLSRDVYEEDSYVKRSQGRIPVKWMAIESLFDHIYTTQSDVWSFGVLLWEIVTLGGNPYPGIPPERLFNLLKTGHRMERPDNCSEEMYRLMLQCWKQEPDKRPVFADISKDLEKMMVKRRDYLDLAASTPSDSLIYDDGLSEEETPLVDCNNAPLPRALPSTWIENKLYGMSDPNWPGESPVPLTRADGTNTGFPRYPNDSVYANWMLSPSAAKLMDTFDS
T1 sequence (P07949 29-1114 V804M): as the sequence (P07949 29-1114) above, with V776M counted along it

## CC(C)n1cc(-c2ccc(CC(=O)Nc3cc(C(C)(C)C(F)(F)F)on3)cc2)c2c(N)ncnc21 [Compound T-3, 2-(4-(4-amino-7-isopropyl-7H-pyrrolo[2,3-d]pyrimidin-5-yl)phenyl)-N-(5-(1,1,1-trifluoro-2-methylprop-2-yl)isoxazol-3-yl)acetamide]
[1]
  Tumor volume (x ± S), Day 0 of administration: 102 ± 7.77 mm^3
  Tumor volume (x ± S), Day 13 of administration: 132.7 ± 11.78 mm^3
  TGI (%), Day 13 of administration: 91.6%
  relative tumor inhibition rate TGI (%): 91.6%
RET V804M
  pIC50: 8.00 to 9.00
[2]
  Tumor volume (x ± S), Day 0 of administration: 104 ± 10.44 mm^3
  TGI (%), Day 14 of administration: 96.3%
  Tumor volume (x ± S), Day 14 of administration: 153.7 ± 13.22 mm^3
[3]
  Number of animals at the beginning/end of assay: 3/3
  Average weight g (x ± S), Day 0 of administration: 19.9 ± 1.18 g
  Average weight g (x ± S), Day 13 of administration: 23.1 ± 1.49 g
  Weight change rate (%), Day 13 of administration: 16.01%
  tolerability (weight loss, drug withdrawal, drug toxicity): well tolerated
Ret wt
  pIC50: ≥ 9.30
[4]
  Number of animals at the beginning/end of assay: 3/3
  Average weight g (x ± S), Day 0 of administration: 19.6 ± 0.84 g
  Average weight g (x ± S), Day 14 of administration: 21.5 ± 0.7 g
  Weight change rate (%), Day 14 of administration: 9.8%
  tolerability (weight loss, drug withdrawal, drug toxicity): well tolerated

## CC(C)n1nc(-c2ccc(CC(=O)Nc3cc(C(C)(C)C(F)(F)F)on3)c(F)c2)c2c(N)ncnc21 [Compound T-6, 2-(4-(4-amino-1-isopropyl-1H-pyrazolo[3,4-d]pyrimidin-3-yl)-2-fluorophenyl)-N-(5-(1,1,1-trifluoro-2-methylprop-2-yl)isoxazol-3-yl)acetamide]
[1]
  Tumor volume (x ± S), Day 0 of administration: 93 ± 8.33 mm^3
  Tumor volume (x ± S), Day 13 of administration: 89.7 ± 4.48 mm^3
  TGI (%), Day 13 of administration: 100.9%#
  relative tumor inhibition rate TGI (%): 100.9%
RET V804M
  pIC50: 9.00 to 9.30
[2]
  Tumor volume (x ± S), Day 0 of administration: 104 ± 3.61 mm^3
  TGI (%), Day 14 of administration: 99.7%
  Tumor volume (x ± S), Day 14 of administration: 108.7 ± 31.33 mm^3
[3]
  Number of animals at the beginning/end of assay: 3/3
  Average weight g (x ± S), Day 0 of administration: 19.4 ± 0.66 g
  Average weight g (x ± S), Day 13 of administration: 22.4 ± 0.46 g
  Weight change rate (%), Day 13 of administration: 15.75%
  tolerability (weight loss, drug withdrawal, drug toxicity): well tolerated
Ret wt
  pIC50: ≥ 9.30
[4]
  Number of animals at the beginning/end of assay: 3/3
  Average weight g (x ± S), Day 0 of administration: 19.3 ± 0.57 g
  Average weight g (x ± S), Day 14 of administration: 21 ± 0.91 g
  Weight change rate (%), Day 14 of administration: 8.8%
  tolerability (weight loss, drug withdrawal, drug toxicity): well tolerated
